Columns and labels:
Assay in all cases: relative viability (nuclei count vs DMSO), 5 days (fraction); higher = more cells survive
ABC-1 = test system: ABC-1
Summary of the method: (§1)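 Cells from lung cancer lines were seeded into 1536-well plates and, one day later, dosed by pin tool. Treatments were either a single drug or a fixed dose of an anchor drug with five library-drug doses (not always all listed) in √10 steps. After 5 days, nuclei were stained in a one-step fixation (final 0.05% Triton X-100, 1% formaldehyde, 1 ug/ml Hoechst) and counted on 4× images, and relative viability is the treated-to-vehicle nuclei ratio, as the median of duplicate plates.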

CAL-12T = test system: CAL-12T
Summary of the method: as §1

COR-L 105 = test system: COR-L 105
Summary of the method: as §1

ChaGo-K-1 = test system: ChaGo-K-1
Summary of the method: as §1

EMC-BAC-2 = test system: EMC-BAC-2
Summary of the method: as §1

EPLC-272H = test system: EPLC-272H
Summary of the method: as §1

HCC-15 = test system: HCC-15
Summary of the method: as §1

HCC-78 = test system: HCC-78
Summary of the method: as §1

HOP-62 = test system: HOP-62
Summary of the method: as §1

LXF-289 = test system: LXF-289
Summary of the method: as §1

NCI-H1666 = test system: NCI-H1666
Summary of the method: as §1

NCI-H1755 = test system: NCI-H1755
Summary of the method: as §1

NCI-H1915 = test system: NCI-H1915
Summary of the method: as §1

NCI-H1975 = test system: NCI-H1975
Summary of the method: as §1

NCI-H2023 = test system: NCI-H2023
Summary of the method: as §1

NCI-H2085 = test system: NCI-H2085
Summary of the method: as §1

NCI-H2126 = test system: NCI-H2126
Summary of the method: as §1

NCI-H3122 = test system: NCI-H3122
Summary of the method: as §1

NCI-H322M = test system: NCI-H322M
Summary of the method: as §1

NCI-H358 = test system: NCI-H358
Summary of the method: as §1

NCI-H441 = test system: NCI-H441
Summary of the method: as §1

UMC-11 = test system: UMC-11
Summary of the method: as §1

SMILES: O=c1cc(N2CCOCC2)oc2c(-c3cccc4c3sc3ccccc34)cccc12 + Cc1nc(Nc2ncc(C(=O)Nc3c(C)cccc3Cl)s2)cc(N2CCN(CCO)CC2)n1 [Dasatinib] (partner 0.075 µM)
- relative viability (ABC-1; first compound 0.01 µM): 0.569
- relative viability (ABC-1; first compound 0.03162 µM): 0.561
- relative viability (ABC-1; first compound 0.1 µM): 0.582
- relative viability (ABC-1; first compound 0.3162 µM): 0.488
- relative viability (ABC-1; first compound 1 µM): 0.567
- relative viability (CAL-12T; first compound 0.01 µM): 0.322
- relative viability (CAL-12T; first compound 0.03162 µM): 0.531
- relative viability (CAL-12T; first compound 0.1 µM): 0.49
- relative viability (CAL-12T; first compound 0.3162 µM): 0.317
- relative viability (CAL-12T; first compound 1 µM): 0.295
- relative viability (COR-L 105; first compound 0.01 µM): 0.316
- relative viability (COR-L 105; first compound 0.03162 µM): 0.327
- relative viability (COR-L 105; first compound 0.1 µM): 0.314
- relative viability (COR-L 105; first compound 0.3162 µM): 0.372
- relative viability (COR-L 105; first compound 1 µM): 0.304
- relative viability (ChaGo-K-1; first compound 0.01 µM): 0.402
- relative viability (ChaGo-K-1; first compound 0.03162 µM): 0.641
- relative viability (ChaGo-K-1; first compound 0.1 µM): 0.517
- relative viability (ChaGo-K-1; first compound 0.3162 µM): 0.609
- relative viability (ChaGo-K-1; first compound 1 µM): 0.73
- relative viability (EMC-BAC-2; first compound 0.01 µM): 0.366
- relative viability (EMC-BAC-2; first compound 0.03162 µM): 0.32
- relative viability (EMC-BAC-2; first compound 0.1 µM): 0.342
- relative viability (EMC-BAC-2; first compound 0.3162 µM): 0.371
- relative viability (EMC-BAC-2; first compound 1 µM): 0.344
- relative viability (EPLC-272H; first compound 0.01 µM): 0.445
- relative viability (EPLC-272H; first compound 0.03162 µM): 0.424
- relative viability (EPLC-272H; first compound 0.3162 µM): 0.339
- relative viability (EPLC-272H; first compound 1 µM): 0.263
- relative viability (HCC-15; first compound 0.01 µM): 0.63
- relative viability (HCC-15; first compound 0.03162 µM): 0.675
- relative viability (HCC-15; first compound 0.1 µM): 0.697
- relative viability (HCC-15; first compound 0.3162 µM): 0.577
- relative viability (HCC-15; first compound 1 µM): 0.602
- relative viability (HCC-78; first compound 0.01 µM): 0.353
- relative viability (HCC-78; first compound 0.03162 µM): 0.363
- relative viability (HCC-78; first compound 0.1 µM): 0.275
- relative viability (HCC-78; first compound 0.3162 µM): 0.292
- relative viability (HCC-78; first compound 1 µM): 0.32
- relative viability (HOP-62; first compound 0.01 µM): 0.676
- relative viability (HOP-62; first compound 0.03162 µM): 0.676
- relative viability (HOP-62; first compound 0.1 µM): 0.672
- relative viability (HOP-62; first compound 0.3162 µM): 0.639
- relative viability (HOP-62; first compound 1 µM): 0.616
- relative viability (LXF-289; first compound 0.01 µM): 0.239
- relative viability (LXF-289; first compound 0.03162 µM): 0.223
- relative viability (LXF-289; first compound 0.1 µM): 0.187
- relative viability (LXF-289; first compound 0.3162 µM): 0.213
- relative viability (LXF-289; first compound 1 µM): 0.247
- relative viability (NCI-H1666; first compound 0.01 µM): 0.775
- relative viability (NCI-H1666; first compound 0.03162 µM): 0.787
- relative viability (NCI-H1666; first compound 0.1 µM): 0.755
- relative viability (NCI-H1666; first compound 0.3162 µM): 0.809
- relative viability (NCI-H1666; first compound 1 µM): 0.754
- relative viability (NCI-H1755; first compound 0.01 µM): 0.511
- relative viability (NCI-H1755; first compound 0.03162 µM): 0.412
- relative viability (NCI-H1755; first compound 0.1 µM): 0.471
- relative viability (NCI-H1755; first compound 0.3162 µM): 0.416
- relative viability (NCI-H1755; first compound 1 µM): 0.415
- relative viability (NCI-H1915; first compound 0.01 µM): 0.33
- relative viability (NCI-H1915; first compound 0.03162 µM): 0.334
- relative viability (NCI-H1915; first compound 0.1 µM): 0.314
- relative viability (NCI-H1915; first compound 0.3162 µM): 0.321
- relative viability (NCI-H1915; first compound 1 µM): 0.316
- relative viability (NCI-H1975; first compound 0.01 µM): 0.333
- relative viability (NCI-H1975; first compound 0.03162 µM): 0.349
- relative viability (NCI-H1975; first compound 0.1 µM): 0.333
- relative viability (NCI-H1975; first compound 0.3162 µM): 0.378
- relative viability (NCI-H1975; first compound 1 µM): 0.404
- relative viability (NCI-H2023; first compound 0.01 µM): 0.523
- relative viability (NCI-H2023; first compound 0.03162 µM): 0.677
- relative viability (NCI-H2023; first compound 0.1 µM): 0.612
- relative viability (NCI-H2023; first compound 0.3162 µM): 0.551
- relative viability (NCI-H2023; first compound 1 µM): 0.513
- relative viability (NCI-H2085; first compound 0.01 µM): 0.267
- relative viability (NCI-H2085; first compound 0.03162 µM): 0.241
- relative viability (NCI-H2085; first compound 0.1 µM): 0.253
- relative viability (NCI-H2085; first compound 0.3162 µM): 0.225
- relative viability (NCI-H2085; first compound 1 µM): 0.219
- relative viability (NCI-H2126; first compound 0.01 µM): 0.66
- relative viability (NCI-H2126; first compound 0.03162 µM): 0.631
- relative viability (NCI-H2126; first compound 0.1 µM): 0.609
- relative viability (NCI-H2126; first compound 0.3162 µM): 0.611
- relative viability (NCI-H2126; first compound 1 µM): 0.533
- relative viability (NCI-H3122; first compound 0.01 µM): 0.667
- relative viability (NCI-H3122; first compound 0.03162 µM): 0.836
- relative viability (NCI-H3122; first compound 0.1 µM): 0.753
- relative viability (NCI-H3122; first compound 0.3162 µM): 0.764
- relative viability (NCI-H3122; first compound 1 µM): 0.751
- relative viability (NCI-H322M; first compound 0.01 µM): 0.231
- relative viability (NCI-H322M; first compound 0.03162 µM): 0.255
- relative viability (NCI-H322M; first compound 0.1 µM): 0.292
- relative viability (NCI-H322M; first compound 0.3162 µM): 0.252
- relative viability (NCI-H322M; first compound 1 µM): 0.224
- relative viability (NCI-H358; first compound 0.01 µM): 0.179
- relative viability (NCI-H358; first compound 0.03162 µM): 0.145
- relative viability (NCI-H358; first compound 0.1 µM): 0.201
- relative viability (NCI-H358; first compound 0.3162 µM): 0.182
- relative viability (NCI-H358; first compound 1 µM): 0.167
- relative viability (NCI-H441; first compound 0.01 µM): 0.623
- relative viability (NCI-H441; first compound 0.03162 µM): 0.676
- relative viability (NCI-H441; first compound 0.1 µM): 0.594
- relative viability (NCI-H441; first compound 0.3162 µM): 0.492
- relative viability (NCI-H441; first compound 1 µM): 0.574
- relative viability (UMC-11; first compound 0.01 µM): 0.452
- relative viability (UMC-11; first compound 0.03162 µM): 0.471
- relative viability (UMC-11; first compound 0.1 µM): 0.487
- relative viability (UMC-11; first compound 0.3162 µM): 0.439
- relative viability (UMC-11; first compound 1 µM): 0.527
